Assays:
[1] = tested on: CrkL (phosphorylation at Y207 by Ab1); experiment: AlphaScreen of Ab1 phosphorylation of CrkL at Y207; type: biochemical; details: positive hits defined as a 50% decrease in Alpha signal vs DMSO
[2] = tested on: pCrkL, P-ERK1/2, pJNK, BIM in MDA-231 and MDA-468 cells; experiment: Western blotting of pCrkL and downstream proteins, breast cancer cells; type: cell-based
Method: Western blotting—According to the company's protocol (Thermo Scientific, Waltham, MA). Western blotting was performed using 20 μg of total cell extracts. Briefly, transferred membranes were incubated with primary antibodies for […] according to the sensitivity of each antibody, followed by HRP-linked secondary antibody for 1 hour. Each membrane was stripped and re-probed for b-actin, which was used as an internal loading control. The protein bands were visualized using a chemiluminescence detection system (Thermo Scientific). The relative optical densities of each band were quantitated and indicated numerically below the bands in each Western blot.
To investigate the molecular mechanisms of Pomiferin-induced apoptosis in breast cancer cells. […] Cell proliferation was first determined by MTT assay as confirmation. […] CrkL is known to mediate the activation of both Raf/ERK and PI3K pathways. So, proteins that relate to these two pathways were utilized.
The Integrated Density Values (IDV) of each band were measured and shown under each blot. […] Inhibition of pCrkL breaks the balance of cell proliferation and death in triple-negative breast cancer cells by regulating these signaling transduction pathways (FIG. 15). The different expression of these proteins in TNBC vs. normal immune cells makes Pomiferin and compounds disclosed herein a candidate for cancer therapy.

[3] = tested on: TM00089 TNBC patient-derived tumor; experiment: TNBC patient-derived xenograft (PDX) TM00089 model; type: in vivo, mice
Description: For the patient-derived xenograft (PDX) model, a cohort of mice engrafted with the TNBC tumor model #TM00089-Breast-Tumor Markers: TNBC ER−(estrogen receptor-negative)/PR—(progesterone receptor-negative)/HER2—(human epidermal growth factor receptor two negative), BRCA1 V757fs (4 to 6-weeks-old females) were obtained from Jackson Laboratories (Bar Harbor, ME). PDX models were generated by surgically engrafting tumor cells into the mammary fat pad of NSG™ (nonobese diabetic, severe combined immunodeficiency, interleukin-2 receptor gamma chain-null) mice.
To determine inhibition efficacy in vivo of Pomiferin in the TNBC clinical patient tumor, the therapeutic efficacy of Pomiferin in a patient-derived tumor xenograft mouse from the Jackson Laboratory PDX Live™ library was evaluated. The TM00089 breast invasive ductal carcinoma was selected, characterized as TNBC ER^−/PR^−/HER2^−, BRCA1^V757fs since TNBC tumors with BRCA1 mutations are generally the most aggressive and have the worst prognosis within the first five years after diagnosis compared to other types of breast cancers.

[4] = tested on: IL-2 production from human PBMCs; experiment: IL-2 ELISA, PBMCs; type: cell-based
Method: IL-2 ELISA—IL-2 in vitro enzyme-linked immunosorbent assay (ELISA) was used to measure human IL-2 productions. This assay was conducted per the user manual from the kit. In brief, human PBMCs were cultured in R10 medium with 0.5 μg/ml PHA. Then, 100 μl of the standard and sample was added to each well and incubated at 4° C. overnight. A prepared biotin antibody (100 μl) was added to each well and incubated for 1 hour at room temperature. Then, 100 μl prepared streptavidin solution was added and incubated for 45 minutes at room temperature. TMB one-step substrate reagent (100 μl) was then added to each well and incubated for 30 minutes at room temperature. Stop solution (50 μl) was then added to each well, and the results were quantified at 450 nm by Infinite M1000 Pro Plate Reader (Tecan, Switzerland) immediately.
Previous studies have shown that phosphorylated CrkL inhibits immune cell functions. It was then evaluated whether a pCrkL inhibitor could restore immune cell functions. To test this, the production of IL-2 from human PBMCs treated with different concentrations of Pomiferin was quantitated. Phytohemagglutinin (PHA) was used to stimulate the secretion of IL-2 as a positive control group. […] Similar results were obtained from the third donor (FIG. 5B, lower panel).

Hs578T cells = experiment: MTT proliferation assay, Hs578T; type: cell-based; details: 2.5 μM, 48 hours, vs DMSO
Method: MTT assay—The MTT assay was used to detect cell proliferation. Briefly, cells were plated in a 96-well plate at a density of 50,000 cells/well in 200 μl of culture medium with candidate drugs to be tested (DMSO as a negative control). The treated cells were incubated for four hours a 37° C. with a 5% CO2 incubator to allow dark crystals to form at the bottom of the wells. After culturing for 48 hours, […] of MTT reagent was added to each well and mixed gently for one minute. After aspirating the culture medium from each well, 100 μl of crystal dissolving solution was added to each well and incubated for 10 minutes at RT. The signal was quantified by measuring the absorbance in each sample at 570 nm using a microplate reader.

AML cell line (MoLM-13) = experiment: CCK-8 cell viability, MoLM-13; type: cell-based, human; details: 1 uM, 5 uM, 10 uM; 48 hours
Method: In this example, activities of NC5, Compound III, and the known chemotherapeutic, Cytarabine, were evaluated in the AML cell line (MoLM-13). MoLM-13 cells were collected and seeded at 5,000 cells/well in 96-well plates. The cells were incubated for 24 hours before the addition of either DMSO control or drug at various concentrations. After an additional 48 hours of incubation, 3 μL of CCK-8 was added to every well and incubated at 37° C. for 3 hours. Absorbance was measured at 460 nm in a plate reader. […] The related absorbance was normalized and plotted as line graphs. p-values were determined through two tails student t-tests (*=p<0.5, **=p<0.01, ***=p<0.001).

SMILES: CC(C)=CCc1c2c(c3occ(-c4ccc(O)c(O)c4)c(=O)c3c1O)C=CC(C)(C)O2 [Pomiferin, 3′,4′,5-Trihydroxy-6″,6″-dimethyl-6-(3-methylbut-2-en-1-yl)-6″H-pyrano[2″,3″:7,8]isoflavone]
- AlphaScreen hit (inhibition of Crk phosphorylation) [1]: identified hit
- P-ERK1/2 levels (Western blotting) ([2]; NC5 1, 5, 10 uM, 24 hours): reduces P-ERK1/2 levels
- pCrkL levels (Western blotting) ([2]; NC5 1, 5, 10 uM, 24 hours): dramatically inhibited
- BIM levels (Western blotting) ([2]; NC5, 24 hours): dramatically increased
- pJNK levels (Western blotting) ([2]; NC5, 24 hours): dramatically increased
- tumor growth ([3]; 5.0 μg/g Pomiferin vs vehicle): significantly more inhibited
- median survival, fold longer than vehicle control ([3]; Pomiferin 5 μg/g): 1.4 fold
- median survival ([3]; Pomiferin 5 μg/g, vehicle 39 days): 53 days
- body weights ([3]; vs vehicle, during drug treatment period): not significantly different
- IL2 secretion ([4]; PBMCs from three healthy donors, treated overnight): did not inhibit IL2 secretion
- IL-2 production ([4]; first donor, compared to DMSO): decreased IL-2 production
- cell proliferation (MTT) (Hs578T cells): had an inhibitory effect on proliferation
- cell viability (CCK-8) (AML cell line (MoLM-13)): decreased cell viability

Reference: patent US20250154180A1, “CRK-LIKE (CRKL) ADAPTOR PROTEIN INHIBITORS AND METHODS OF MAKING AND USING THE SAME” (Rutgers, The State University of New Jersey, priority 2022, published 2025)
